Active and inactive are the calls of the source.
Legend:
[1] = target: T1, Replicative DNA helicase DnaB (Mycobacterium tuberculosis, UniProt P9WMR3); assay: DnaB intein splicing inhibitors, dose response, biochemical, cell-free fluorescence (AID 449749); assay type: functional
T1 sequence (P9WMR3 whole entry): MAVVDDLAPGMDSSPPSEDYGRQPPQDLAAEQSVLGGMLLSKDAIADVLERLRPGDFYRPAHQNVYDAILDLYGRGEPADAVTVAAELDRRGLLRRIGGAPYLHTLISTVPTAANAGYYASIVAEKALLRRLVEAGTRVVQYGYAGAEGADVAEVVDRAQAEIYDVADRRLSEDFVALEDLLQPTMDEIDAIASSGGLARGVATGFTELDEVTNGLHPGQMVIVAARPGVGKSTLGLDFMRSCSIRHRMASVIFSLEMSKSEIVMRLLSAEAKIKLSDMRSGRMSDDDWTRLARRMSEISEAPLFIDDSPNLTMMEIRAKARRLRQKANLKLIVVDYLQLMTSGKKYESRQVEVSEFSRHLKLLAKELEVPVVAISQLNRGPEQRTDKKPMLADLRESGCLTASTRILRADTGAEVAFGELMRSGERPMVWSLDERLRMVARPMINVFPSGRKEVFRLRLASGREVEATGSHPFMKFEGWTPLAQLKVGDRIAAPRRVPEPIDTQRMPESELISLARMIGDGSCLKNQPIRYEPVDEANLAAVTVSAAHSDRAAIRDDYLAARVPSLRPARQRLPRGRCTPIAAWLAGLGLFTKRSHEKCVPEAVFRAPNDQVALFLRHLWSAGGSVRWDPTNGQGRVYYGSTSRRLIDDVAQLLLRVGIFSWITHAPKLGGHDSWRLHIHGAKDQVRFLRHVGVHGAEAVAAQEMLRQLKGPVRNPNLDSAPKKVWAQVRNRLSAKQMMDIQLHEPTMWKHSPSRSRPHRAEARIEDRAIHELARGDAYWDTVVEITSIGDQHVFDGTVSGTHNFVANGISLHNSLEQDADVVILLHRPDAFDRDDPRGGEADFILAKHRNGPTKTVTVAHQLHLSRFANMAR

[2] = target: T2, Protein RecA (Mycobacterium tuberculosis, UniProt P9WHJ3); assay: Fluorescence Cell-Free Homogeneous Dose Retest to Identify Inhibitors of RecA-Intein Splicing Activity. [Related pubchem assays (depositor defined):AID2097, AID2223, AID489010, AID492950]; assay type: functional
T2 sequence (P9WHJ3 whole entry): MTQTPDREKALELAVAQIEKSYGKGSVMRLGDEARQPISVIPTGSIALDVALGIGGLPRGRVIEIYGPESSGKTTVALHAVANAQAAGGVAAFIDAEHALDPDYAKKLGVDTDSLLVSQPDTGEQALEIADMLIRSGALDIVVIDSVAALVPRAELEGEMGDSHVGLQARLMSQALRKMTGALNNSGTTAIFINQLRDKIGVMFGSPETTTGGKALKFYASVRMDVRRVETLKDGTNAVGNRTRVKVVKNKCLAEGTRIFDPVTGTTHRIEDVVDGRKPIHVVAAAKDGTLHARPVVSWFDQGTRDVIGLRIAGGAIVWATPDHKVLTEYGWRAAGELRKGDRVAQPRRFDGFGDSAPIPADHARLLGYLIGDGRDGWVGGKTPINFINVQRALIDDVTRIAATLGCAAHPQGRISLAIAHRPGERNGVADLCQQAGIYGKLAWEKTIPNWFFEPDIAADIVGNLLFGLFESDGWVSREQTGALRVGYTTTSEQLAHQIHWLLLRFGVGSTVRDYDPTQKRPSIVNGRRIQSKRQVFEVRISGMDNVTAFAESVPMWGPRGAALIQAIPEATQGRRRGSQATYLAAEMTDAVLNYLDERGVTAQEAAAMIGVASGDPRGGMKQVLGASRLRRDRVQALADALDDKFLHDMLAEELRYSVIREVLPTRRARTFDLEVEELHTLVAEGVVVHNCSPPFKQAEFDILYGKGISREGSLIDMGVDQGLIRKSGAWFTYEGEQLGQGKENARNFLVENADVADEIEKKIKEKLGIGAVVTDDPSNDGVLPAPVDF

[3] = target: T3, Fatty acid synthase (Homo sapiens, UniProt P49327); assay: inhibition of human FAS-TE enzyme activity – biochemical, endpoint fluorescence intensity, uHTS hits, dose response (AID 624327); assay type: functional;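 note: fluorescence from hydrolysis of an O-methyl fluorescein acyl ester substrate by the enzyme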
T3 sequence (P49327 whole entry): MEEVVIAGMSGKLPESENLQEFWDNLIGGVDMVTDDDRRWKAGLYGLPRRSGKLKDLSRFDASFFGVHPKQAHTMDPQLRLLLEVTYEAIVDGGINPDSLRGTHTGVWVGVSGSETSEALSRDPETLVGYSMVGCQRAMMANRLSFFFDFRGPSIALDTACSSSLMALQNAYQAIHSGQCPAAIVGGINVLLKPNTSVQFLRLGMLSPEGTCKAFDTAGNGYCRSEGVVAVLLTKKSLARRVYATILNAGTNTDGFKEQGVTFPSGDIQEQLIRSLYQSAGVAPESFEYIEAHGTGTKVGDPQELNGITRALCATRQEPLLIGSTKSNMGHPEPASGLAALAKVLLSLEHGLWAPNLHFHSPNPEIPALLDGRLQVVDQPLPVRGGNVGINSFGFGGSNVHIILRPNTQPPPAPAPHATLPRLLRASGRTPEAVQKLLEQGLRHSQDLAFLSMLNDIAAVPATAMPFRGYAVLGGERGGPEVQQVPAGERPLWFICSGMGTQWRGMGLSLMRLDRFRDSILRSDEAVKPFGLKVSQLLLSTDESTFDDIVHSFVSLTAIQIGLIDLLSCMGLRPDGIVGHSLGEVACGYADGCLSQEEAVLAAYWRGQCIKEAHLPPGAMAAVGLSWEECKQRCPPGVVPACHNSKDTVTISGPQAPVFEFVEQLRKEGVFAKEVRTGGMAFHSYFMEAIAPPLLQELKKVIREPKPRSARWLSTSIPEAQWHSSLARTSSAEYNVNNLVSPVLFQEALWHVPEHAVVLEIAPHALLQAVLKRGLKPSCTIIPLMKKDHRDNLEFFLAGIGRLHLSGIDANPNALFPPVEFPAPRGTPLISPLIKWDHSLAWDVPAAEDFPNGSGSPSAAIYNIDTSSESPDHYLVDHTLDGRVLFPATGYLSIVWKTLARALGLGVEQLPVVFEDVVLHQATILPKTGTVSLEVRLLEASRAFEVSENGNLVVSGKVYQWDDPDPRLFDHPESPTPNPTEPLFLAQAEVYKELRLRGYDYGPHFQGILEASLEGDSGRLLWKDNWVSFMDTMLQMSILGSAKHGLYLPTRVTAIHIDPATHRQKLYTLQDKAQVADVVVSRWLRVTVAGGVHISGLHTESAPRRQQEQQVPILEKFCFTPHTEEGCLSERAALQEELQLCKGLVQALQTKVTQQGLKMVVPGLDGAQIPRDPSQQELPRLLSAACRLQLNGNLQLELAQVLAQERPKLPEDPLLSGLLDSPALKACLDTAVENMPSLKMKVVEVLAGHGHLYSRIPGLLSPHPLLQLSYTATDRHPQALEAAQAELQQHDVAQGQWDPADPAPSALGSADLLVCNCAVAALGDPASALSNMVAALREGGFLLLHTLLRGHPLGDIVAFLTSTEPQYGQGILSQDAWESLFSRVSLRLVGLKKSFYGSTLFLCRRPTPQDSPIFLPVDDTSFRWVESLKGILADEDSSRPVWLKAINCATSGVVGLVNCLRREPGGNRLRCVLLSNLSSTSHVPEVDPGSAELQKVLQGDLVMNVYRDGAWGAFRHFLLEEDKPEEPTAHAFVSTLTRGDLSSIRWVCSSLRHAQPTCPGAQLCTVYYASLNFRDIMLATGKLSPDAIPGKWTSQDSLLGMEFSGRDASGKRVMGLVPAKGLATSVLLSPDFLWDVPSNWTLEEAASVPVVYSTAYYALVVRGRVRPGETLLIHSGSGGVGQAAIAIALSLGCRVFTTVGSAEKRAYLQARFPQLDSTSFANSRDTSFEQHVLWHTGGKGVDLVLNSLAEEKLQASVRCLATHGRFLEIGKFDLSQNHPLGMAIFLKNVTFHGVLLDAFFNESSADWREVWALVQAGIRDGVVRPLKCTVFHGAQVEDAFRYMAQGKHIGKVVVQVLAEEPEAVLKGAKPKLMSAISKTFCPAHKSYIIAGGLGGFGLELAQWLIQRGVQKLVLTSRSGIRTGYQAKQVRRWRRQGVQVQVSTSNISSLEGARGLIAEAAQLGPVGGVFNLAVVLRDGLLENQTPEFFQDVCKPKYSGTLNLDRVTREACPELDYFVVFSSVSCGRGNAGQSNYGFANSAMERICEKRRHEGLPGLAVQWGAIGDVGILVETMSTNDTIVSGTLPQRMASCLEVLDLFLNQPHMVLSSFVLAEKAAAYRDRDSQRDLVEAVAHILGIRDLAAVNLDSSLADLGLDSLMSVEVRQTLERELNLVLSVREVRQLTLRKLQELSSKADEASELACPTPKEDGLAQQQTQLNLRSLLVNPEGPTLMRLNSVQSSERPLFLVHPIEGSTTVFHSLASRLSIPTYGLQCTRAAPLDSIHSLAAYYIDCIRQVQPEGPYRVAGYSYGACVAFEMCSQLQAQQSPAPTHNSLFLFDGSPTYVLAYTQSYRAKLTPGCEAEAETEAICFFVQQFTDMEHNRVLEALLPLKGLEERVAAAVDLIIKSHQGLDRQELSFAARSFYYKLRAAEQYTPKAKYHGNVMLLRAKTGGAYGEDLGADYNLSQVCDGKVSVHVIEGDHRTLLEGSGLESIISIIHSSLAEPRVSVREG

[4] = target: T3, Fatty acid synthase; assay: inhibition of human FAS-TE enzyme activity – biochemical, kinetic fluorescence intensity, dose response (AID 624326); assay type: functional;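 note: rate of fluorescence rise from hydrolysis of a fluorogenic O-methyl fluorescein ester substrate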
[5] = system: HEK293; assay: cells; conditions: Homo sapiens
[6] = system: HEK293; assay: cells; conditions: Homo sapiens; remark: listed apart in the source
[7] = Luminescence Cell-Based Dose Response to Identify Activators of 5'UTR Stem-Loop Driven Prion Protein mRNA Translation in H4-C Neuroglioblastoma Cells. [Related pubchem assays: 1829 (Project Summary), 1814 (Primary HTS)]; assay type: functional
[8] = system: H4; assay: Luminescence Cell-Based Dose Response HTS to Identify Activators of 5'UTR Stem-Loop Driven Prion Protein mRNA Translation in H4 Neuroglioblastoma Cells. [Related pubchem assays: 1829 (Project Summary), 1814 (Primary HTS)]; assay type: functional; conditions: Homo sapiens
[9] = Luminescence Cell-Based Dose Response to Identify Activators of Luciferase Translation or Activity in H4-C Neuroglioblastoma Cells. [Related pubchem assays: 1829 (Project Summary), 1814 (Primary HTS)]; assay type: functional
[10] = Luminescence Cell-Based Dose Confirmation to Identify Activators of 5'UTR Stem-Loop Driven Alpha-Synuclein mRNA Translation in H4 Neuroglioblastoma Cells. [Related pubchem assays: 1829 (Project Summary), 1814 (Primary HTS)]; assay type: functional
[11] = system: HEK293; assay: cells; assay type: functional, cell-based; conditions: Homo sapiens
[12] = target: Nuclear receptor subfamily 0 group B member 1 (Homo sapiens, UniProt P51843); assay: Luminescence-based cell-based high throughput dose response assay for inhibitors of the orphan nuclear receptor subfamily 0, group B, member 1 (DAX1; NR0B1). [Related pubchem assays (depositor defined):AID504766, AID504790]; assay type: functional
Nuclear receptor subfamily 0 group B member 1, sequence (P51843 whole entry): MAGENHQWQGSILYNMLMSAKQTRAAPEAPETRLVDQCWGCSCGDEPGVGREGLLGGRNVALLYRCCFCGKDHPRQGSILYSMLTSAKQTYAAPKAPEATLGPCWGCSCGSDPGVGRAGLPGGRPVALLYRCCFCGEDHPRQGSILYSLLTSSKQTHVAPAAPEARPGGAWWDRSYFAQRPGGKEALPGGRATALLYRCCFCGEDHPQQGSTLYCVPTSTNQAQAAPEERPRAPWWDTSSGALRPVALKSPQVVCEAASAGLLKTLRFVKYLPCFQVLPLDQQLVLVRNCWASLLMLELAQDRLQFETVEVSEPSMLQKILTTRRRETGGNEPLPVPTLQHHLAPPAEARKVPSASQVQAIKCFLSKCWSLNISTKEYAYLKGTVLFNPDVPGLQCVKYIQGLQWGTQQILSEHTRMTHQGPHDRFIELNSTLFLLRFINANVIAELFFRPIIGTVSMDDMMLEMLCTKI

[13] = target: Delta-type opioid receptor (Homo sapiens, UniProt P41143); assay: Counterscreen for agonists of heterodimerization of the mu 1 (OPRM1) and delta 1 (OPRD1) opioid receptors: Luminescence-based cell-based high throughput dose response assay to identify agonists of OPRD1 homodimerization. [Related pubchem assays (depositor defined):AID504326, AID504355, AID504692, AID504904, AID504905]; assay type: functional
Delta-type opioid receptor, sequence (P41143 whole entry): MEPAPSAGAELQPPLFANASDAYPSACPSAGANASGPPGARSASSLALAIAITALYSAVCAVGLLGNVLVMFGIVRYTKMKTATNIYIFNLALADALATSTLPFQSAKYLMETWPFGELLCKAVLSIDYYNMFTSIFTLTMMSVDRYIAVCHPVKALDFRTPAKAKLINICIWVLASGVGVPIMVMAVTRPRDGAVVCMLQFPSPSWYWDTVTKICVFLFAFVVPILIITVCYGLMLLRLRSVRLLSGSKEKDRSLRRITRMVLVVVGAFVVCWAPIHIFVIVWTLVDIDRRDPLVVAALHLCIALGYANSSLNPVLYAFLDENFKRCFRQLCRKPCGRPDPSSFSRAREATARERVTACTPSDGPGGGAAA

[14] = target: Mu-type opioid receptor (Homo sapiens, UniProt P35372); assay: Counterscreen for agonists of heterodimerization of the mu 1 (OPRM1) and delta 1 (OPRD1) opioid receptors: Luminescence-based cell-based high throughput dose response assay to identify agonists of OPRM1 homodimerization.; assay type: functional;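 note: U2OS cells expressing OPRM1 and beta-arrestin as split beta-galactosidase partners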
Mu-type opioid receptor, sequence (P35372 whole entry): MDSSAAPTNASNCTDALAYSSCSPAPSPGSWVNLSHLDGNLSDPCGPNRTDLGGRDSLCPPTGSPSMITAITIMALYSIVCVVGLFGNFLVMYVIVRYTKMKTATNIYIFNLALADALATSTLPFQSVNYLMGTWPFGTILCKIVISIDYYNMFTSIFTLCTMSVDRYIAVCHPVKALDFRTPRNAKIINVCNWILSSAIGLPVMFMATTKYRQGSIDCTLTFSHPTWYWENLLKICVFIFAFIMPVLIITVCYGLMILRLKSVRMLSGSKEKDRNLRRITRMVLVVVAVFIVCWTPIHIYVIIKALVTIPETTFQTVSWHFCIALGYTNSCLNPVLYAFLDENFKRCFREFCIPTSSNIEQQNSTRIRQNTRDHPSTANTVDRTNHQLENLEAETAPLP

[15] = target: 5-hydroxytryptamine receptor 5A (Homo sapiens, UniProt P47898); assay: Counterscreen for agonists of OPRM1-OPRD1 heterodimerization: luminescence-based cell-based high throughput dose response assay to identify agonists of 5-hydroxytryptamine (serotonin) 5A receptor (HTR5A). [Related pubchem assays (depositor defined):AID504326, AID504355, AID504692, AID504904, AID504905]; assay type: functional
5-hydroxytryptamine receptor 5A, sequence (P47898 whole entry): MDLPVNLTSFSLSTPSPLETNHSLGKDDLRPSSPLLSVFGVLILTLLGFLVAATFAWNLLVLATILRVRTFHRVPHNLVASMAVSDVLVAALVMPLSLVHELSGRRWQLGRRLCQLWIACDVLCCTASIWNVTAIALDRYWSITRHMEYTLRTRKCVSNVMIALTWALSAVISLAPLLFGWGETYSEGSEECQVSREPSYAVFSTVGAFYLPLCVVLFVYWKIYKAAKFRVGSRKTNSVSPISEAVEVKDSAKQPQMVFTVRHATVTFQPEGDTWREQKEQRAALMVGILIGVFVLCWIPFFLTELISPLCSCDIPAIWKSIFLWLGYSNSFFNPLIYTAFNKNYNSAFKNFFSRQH

[16] = Trypanosoma cruzi growth suppression in host cells – NIH3T3 host cells, beta-gal luminescence, confirmation (AID 2044); assay type: functional, cell-based;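 note: intracellular parasites grown in NIH/3T3 mouse fibroblasts as host cells; luminescent beta-galactosidase reporter signal from transgenic T. cruzi replicating inside host cells; inhibitors lower the luminescence signal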
[17] = NIH3T3 cell viability loss – ATP luminescence, mouse fibroblasts, counter-screen, dose response (AID 2010); assay type: functional, cell-based;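 note: cells exposed to compound for about 90 hours before reading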
[18] = cells; assay type: functional
[19] = system: Vero; assay: cells; assay type: functional, cell-based; conditions: Chlorocebus sabaeus
[20] = system: Escherichia coli; assay: microbe, parasite or virus in culture
[21] = system: Streptococcus sp. 'group A'; assay: Streptococcus pyogenes SK(-)GAS viability under kanamycin – luminescence, BacTiterGlo, confirmation, counter-screen for streptokinase expression inhibitor project, dose response (AID 1900); assay type: functional, organism-based
[22] = target: T4, Zinc finger protein mex-5 (Caenorhabditis elegans, UniProt Q9XUB2); assay: potency of MEX-5 RNA-binding blockers – biochemical, C. elegans, fluorescence polarization, dose response (AID 1960)
T4 sequence (Q9XUB2 whole entry): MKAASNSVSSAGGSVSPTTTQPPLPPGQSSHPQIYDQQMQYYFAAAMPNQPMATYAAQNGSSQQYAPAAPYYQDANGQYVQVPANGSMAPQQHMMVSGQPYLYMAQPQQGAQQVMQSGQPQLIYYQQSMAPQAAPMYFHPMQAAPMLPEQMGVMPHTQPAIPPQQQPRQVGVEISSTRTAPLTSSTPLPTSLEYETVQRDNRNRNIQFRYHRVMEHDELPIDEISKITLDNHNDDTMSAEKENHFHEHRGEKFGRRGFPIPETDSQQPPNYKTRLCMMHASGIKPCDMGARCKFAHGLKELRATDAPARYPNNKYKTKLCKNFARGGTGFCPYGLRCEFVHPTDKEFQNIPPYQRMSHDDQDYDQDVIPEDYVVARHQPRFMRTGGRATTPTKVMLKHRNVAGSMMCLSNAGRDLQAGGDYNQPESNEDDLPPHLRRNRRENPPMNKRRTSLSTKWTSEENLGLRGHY

[23] = system: Streptococcus; assay: GAS UMAA2166 growth inhibition – luminescence, BacTiterGlo, counter-screen for streptokinase expression inhibitor project, dose response (AID 1915); assay type: functional, organism-based;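 note: potency for reduction of bacterial viability or growth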
[24] = system: Escherichia coli; assay: microbe, parasite or virus in culture; remark: listed apart in the source
[25] = viability of uninfected HEp-2 cells – cell-based, HTS, cytotoxicity control for RSV inhibitor project, dose response (AID 2410); assay type: functional; conditions: human respiratory syncytial virus
[26] = system: Vero; assay: mammalian cell viability reduction – secondary assay, cytotoxicity control for West Nile virus antiviral project, dose response (AID 1650); assay type: functional; conditions: Chlorocebus sabaeus
[27] = system: Vero; assay: cells; assay type: functional; conditions: Chlorocebus sabaeus
[28] = target: T5, Short transient receptor potential channel 4 (Mus musculus, UniProt Q9QUQ5); assay: calcium entry via TRPC4 opening agents – cell-based, HEK293 TRPC4/mu-opioid, Fluo-4 calcium, dose response (AID 434937); assay type: functional
T5 sequence (Q9QUQ5 whole entry): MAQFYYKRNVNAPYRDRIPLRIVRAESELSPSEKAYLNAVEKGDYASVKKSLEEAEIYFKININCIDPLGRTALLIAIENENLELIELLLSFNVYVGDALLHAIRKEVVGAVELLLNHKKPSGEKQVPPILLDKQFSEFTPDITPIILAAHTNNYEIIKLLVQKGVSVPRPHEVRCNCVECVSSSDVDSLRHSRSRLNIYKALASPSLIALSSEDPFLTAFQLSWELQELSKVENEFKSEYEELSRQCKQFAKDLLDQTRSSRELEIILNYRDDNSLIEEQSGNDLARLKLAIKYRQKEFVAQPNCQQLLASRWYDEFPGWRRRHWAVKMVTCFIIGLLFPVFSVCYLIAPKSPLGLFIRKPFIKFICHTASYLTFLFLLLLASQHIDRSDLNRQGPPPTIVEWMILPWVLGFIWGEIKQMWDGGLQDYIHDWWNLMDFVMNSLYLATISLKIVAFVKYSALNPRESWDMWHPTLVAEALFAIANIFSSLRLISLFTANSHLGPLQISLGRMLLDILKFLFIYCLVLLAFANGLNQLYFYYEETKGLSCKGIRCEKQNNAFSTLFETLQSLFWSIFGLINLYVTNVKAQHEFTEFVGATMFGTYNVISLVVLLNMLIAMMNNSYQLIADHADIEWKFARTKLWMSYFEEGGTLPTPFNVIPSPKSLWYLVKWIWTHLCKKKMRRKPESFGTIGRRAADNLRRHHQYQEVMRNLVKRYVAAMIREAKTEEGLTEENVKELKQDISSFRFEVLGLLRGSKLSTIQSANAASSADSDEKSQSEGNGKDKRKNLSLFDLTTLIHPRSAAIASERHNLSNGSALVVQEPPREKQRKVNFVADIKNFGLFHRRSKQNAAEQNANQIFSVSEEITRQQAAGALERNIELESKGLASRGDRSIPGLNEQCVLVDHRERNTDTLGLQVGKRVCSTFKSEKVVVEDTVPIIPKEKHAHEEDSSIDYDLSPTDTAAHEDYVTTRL

CCc1cccc(CC)c1NC(=O)/C(C#N)=C/c1ccccc1C(F)(F)F
AC50 [1]: 4.45 µM (active)
EC50 [2]: 11.7 µM (active)
IC50 [3]: 7.72 µM (active)
IC50 [4]: 4.74 µM (active)
EC50 [5]: > 59.6 µM (inactive)
EC50 [6]: > 59.6 µM (inactive)

Cc1ccccc1Nc1nc(N)nc(CSc2ccc(F)cc2)n1
EC50 [7]: 0.343 µM (active)
EC50 [8]: < 0.1 µM (active)
EC50 [9]: 0.351 µM (active)
EC50 [10]: 0.229 µM (active)
IC50 [11]: > 67.5 µM (inactive)
IC50 [12]: > 67.5 µM (inactive)

COc1ccc(-c2csc(N(CCCN(C)C)C(=O)c3cccs3)n2)cc1
EC50 [13]: > 92.5 µM (inactive)
EC50 [14]: > 92.5 µM (inactive)
EC50 [15]: > 92.5 µM (inactive)

CC(=O)Nc1ccc(S(=O)(=O)N[C@@H](C)C(=O)OCC(=O)c2ccc(Br)s2)cc1
IC50 [11]: > 67.5 µM (inactive)
IC50 [12]: > 67.5 µM (inactive)

O=C1c2cccc3cc([N+](=O)[O-])cc(c23)C(=O)N1c1ccccc1O
EC50 [16]: 0.354 µM (active)
EC50 [17]: 9.05 µM (active)
IC50 [18]: > 50 µM (active)
IC50 [19]: 2.35 µM (active)

CCCCOCC1CN(c2ccccc2)C(=O)CS1 (stereo unspecified)
AC50 [20]: 20.9 µM (active)

C[C@H]1c2cccc(O)c2C(=O)C2=C(O)[C@]3(O)C(O)=C(C(N)=O)C(=O)[C@@H](N(C)C)C3[C@@H](O)C21 (stereo partly specified)
EC50 [21]: < 0.06 µM (active)
EC50 [22]: 45.3 µM (active)
EC50 [23]: 0.109 µM (active)
AC50 [20]: 39.8 µM (active)
AC50 [24]: 2.34 µM (active)

CC1(C)COC(/C=C/c2cccc([N+](=O)[O-])c2)=N1
CC50 [25]: 9.78 µM (active)
CC50 [26]: 12.6 µM (active)
IC50 [19]: 21.5 µM (active)
CC50 [27]: 15.1 µM (active)

COc1ccc(C(=O)C2(C)N(O)C(C)C(c3cccs3)=[N+]2[O-])cc1 (stereo unspecified)
AC50 [24]: > 380 µM (inactive)

CCOC(=O)C1(CC2CCCCO2)CCN(Cc2c(C)cc(C)cc2-n2cccn2)CC1 (stereo unspecified)
EC50 [28]: 0.0293 µM (active)
EC50 [13]: > 92.5 µM (inactive)
EC50 [14]: 15.5 µM (inactive)
EC50 [15]: > 92.5 µM (inactive)

— ChEMBL document CHEMBL1201862, “PubChem BioAssay data set” (2004)
